According to article PMC6572064, “Discovery of 2-(1-(3-(4-Chloroxyphenyl)-3-oxo- propyl)pyrrolidine-3-yl)-1H-benzo[d]imidazole-4-carboxamide: A Potent Poly(ADP-ribose) Polymerase (PARP) Inhibitor for Treatment of Cancer” (Molecules, 2019):
Read-outs that look alike come from different tables or passages of the source.

How the values were obtained:
[1] = target: T1, PARP-1 (Homo sapiens, UniProt P09874); assay: PARP-1 inhibition assay (PARP-1 Chemiluminescent Assay Kit, BPS Bioscience); format: biochemical; details: for inhibition at 0.01 µM: 10 nM compound
T1 construct: purchased BPS Bioscience 80569
T1 sequence (P09874 whole entry): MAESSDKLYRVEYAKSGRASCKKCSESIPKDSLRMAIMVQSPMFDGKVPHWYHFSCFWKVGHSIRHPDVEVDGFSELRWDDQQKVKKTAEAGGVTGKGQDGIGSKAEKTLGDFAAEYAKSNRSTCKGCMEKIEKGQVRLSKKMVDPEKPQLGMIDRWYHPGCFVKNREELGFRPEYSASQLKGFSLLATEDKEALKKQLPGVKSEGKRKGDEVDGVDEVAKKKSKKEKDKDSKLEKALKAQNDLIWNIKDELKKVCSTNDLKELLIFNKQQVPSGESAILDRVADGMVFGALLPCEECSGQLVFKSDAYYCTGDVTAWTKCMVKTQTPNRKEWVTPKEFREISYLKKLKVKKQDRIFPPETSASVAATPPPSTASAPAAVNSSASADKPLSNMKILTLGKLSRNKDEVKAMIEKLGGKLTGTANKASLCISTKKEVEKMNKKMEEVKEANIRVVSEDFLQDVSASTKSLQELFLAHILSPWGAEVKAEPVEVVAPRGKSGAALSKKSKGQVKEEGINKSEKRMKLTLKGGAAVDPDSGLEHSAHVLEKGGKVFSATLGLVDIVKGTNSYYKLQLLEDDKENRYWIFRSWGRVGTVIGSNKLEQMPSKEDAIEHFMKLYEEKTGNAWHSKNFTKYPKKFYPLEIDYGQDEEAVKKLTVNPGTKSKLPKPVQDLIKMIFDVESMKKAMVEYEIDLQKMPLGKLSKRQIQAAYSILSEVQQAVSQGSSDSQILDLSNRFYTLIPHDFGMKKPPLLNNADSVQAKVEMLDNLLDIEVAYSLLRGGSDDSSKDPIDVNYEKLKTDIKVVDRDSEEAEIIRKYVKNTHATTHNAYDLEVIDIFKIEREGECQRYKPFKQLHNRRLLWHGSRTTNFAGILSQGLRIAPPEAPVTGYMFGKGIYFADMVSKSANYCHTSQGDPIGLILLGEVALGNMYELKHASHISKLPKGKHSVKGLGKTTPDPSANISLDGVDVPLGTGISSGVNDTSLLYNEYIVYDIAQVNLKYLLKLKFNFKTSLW
Description: (§1) The PARP-1 and PARP-2 inhibition assays were performed in outsourcing, by a CRO company, Shanghai Medicilon Inc. (Shanghai, China). […] Briefly, PARP-1 or PARP-2 biotinylated substrate was incubated with compounds or solvent control at varying concentrations and an assay buffer containing the PARP-1 or PARP-2 enzyme.

[2] = test system: CAPAN-1 (a BRCA-2-mutated pancreatic cancer cell line); assay: Cell proliferation assay, three-day, CellTiter-Glo, CAPAN-1; format: cell-based; details: for IC50 / inhibition at 0.00508 µM / inhibition at 0.0152 µM / inhibition at 0.0457 µM / inhibition at […] / inhibition at 0.41 µM / inhibition at 1.23 µM / inhibition at 3.7 µM / inhibition at 11.11 µM / inhibition at 33.33 µM / inhibition at 100 µM: Homo sapiens; for inhibition at 0.00508 µM: CAPAN-1, Conc. 0.00508 uM; for inhibition at 0.0152 µM: CAPAN-1, Conc. 0.0152 uM; for inhibition at 0.0457 µM: CAPAN-1, Conc. 0.0457 uM; for inhibition at […]: CAPAN-1, Conc. 0.14 uM; for inhibition at 0.41 µM: CAPAN-1, Conc. 0.41 uM; for inhibition at 1.23 µM: CAPAN-1, Conc. 1.23 uM; for inhibition at 3.7 µM: CAPAN-1, Conc. 3.70 uM; for inhibition at 11.11 µM: CAPAN-1, Conc. 11.11 uM; for inhibition at 33.33 µM: CAPAN-1, Conc. 33.33 uM; for inhibition at 100 µM: CAPAN-1, Conc. 100.00 uM
In short: (§2)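 Luminescent ATP read-out (CellTiter-Glo, 60 min at room temperature) quantified viability after a 72 h compound exposure at 37 °C, 5% CO2. Compounds, diluted from DMSO stocks into growth medium, were added to cells plated the previous day.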

[3] = test system: MDA-MB-436 (a BRCA-1-mutated breast cancer cell line); assay: Cell proliferation assay, three-day, CellTiter-Glo, MDA-MB-436; format: cell-based; details: for inhibition at 0.00508 µM / inhibition at 0.0152 µM / inhibition at 0.0457 µM / inhibition at 0.41 µM / inhibition at 1.23 µM / inhibition at 3.7 µM / inhibition at 11.11 µM / inhibition at 33.33 µM / inhibition at 100 µM / IC50: Homo sapiens; for inhibition at 0.00508 µM: MDA-MB-436, MDA-MB-436, Conc. 0.00508 uM; for inhibition at 0.0152 µM: MDA-MB-436, MDA-MB-436, Conc. 0.0152 uM; for inhibition at 0.0457 µM: MDA-MB-436, MDA-MB-436, Conc. 0.0457 uM; for inhibition at 0.41 µM: MDA-MB-436, MDA-MB-436, Conc. 0.41 uM; for inhibition at 1.23 µM: MDA-MB-436, MDA-MB-436, Conc. 1.23 uM; for inhibition at 3.7 µM: MDA-MB-436, MDA-MB-436, Conc. 3.70 uM; for inhibition at 11.11 µM: MDA-MB-436, MDA-MB-436, Conc. 11.11 uM; for inhibition at 33.33 µM: MDA-MB-436, MDA-MB-436, Conc. 33.33 uM; for inhibition at 100 µM: MDA-MB-436, MDA-MB-436, Conc. 100.00 uM
In short: as §2

[4] = target: T2, PARP-2 (Homo sapiens, UniProt Q9UGN5); assay: PARP-2 inhibition assay (PARP-2 Chemiluminescent Assay Kit, BPS Bioscience); format: biochemical; details: for inhibition at 0.01 µM: 10 nM compound
T2 construct: purchased BPS Bioscience 80552
T2 sequence (Q9UGN5 whole entry): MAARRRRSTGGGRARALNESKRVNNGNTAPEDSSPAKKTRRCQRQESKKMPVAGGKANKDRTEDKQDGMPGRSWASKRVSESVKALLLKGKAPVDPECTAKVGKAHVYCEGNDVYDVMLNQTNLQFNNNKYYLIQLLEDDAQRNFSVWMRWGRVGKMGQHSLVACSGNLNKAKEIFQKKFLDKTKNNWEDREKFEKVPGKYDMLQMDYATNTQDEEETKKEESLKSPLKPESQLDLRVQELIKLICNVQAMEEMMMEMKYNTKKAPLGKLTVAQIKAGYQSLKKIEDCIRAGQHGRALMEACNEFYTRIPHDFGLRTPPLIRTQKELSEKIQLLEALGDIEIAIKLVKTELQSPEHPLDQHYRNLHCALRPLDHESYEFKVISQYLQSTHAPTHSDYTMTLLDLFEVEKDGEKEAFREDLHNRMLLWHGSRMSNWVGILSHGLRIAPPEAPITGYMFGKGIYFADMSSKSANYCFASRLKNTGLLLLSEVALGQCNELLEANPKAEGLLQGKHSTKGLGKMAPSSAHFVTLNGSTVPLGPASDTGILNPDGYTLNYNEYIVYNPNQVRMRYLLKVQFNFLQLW
Description: as §1

NC(=O)c1cccc2[nH]c(C3CCN(CCC(=O)c4ccccc4)C3)nc12 (centres unmarked) [Compound 5cp, 2-(1-(3-Oxo-3-phenylpropyl)pyrrolidin-3-yl)-1H-benzo[d]imidazole-4-carboxamide]
inhibition at 0.01 µM ([1]; supplement sheet, read-out: 10 nM inhibition% PAPR-1): 68% | inhibition at 0.01 µM ([1]; read-out: PARP-1 Inhibition % (10 nM)): 68% | IC50 ([1]; read-out: PARP-1 IC50): 0.0036 µM | IC50 ([1]; supplement sheet, read-out: IC50 PAPR-1): 0.00364 µM | Inh % 1 ([2]; CAPAN-1, Conc. printed as #REF!, replicate 1): 18.8% | Inh % 2 ([2]; CAPAN-1, Conc. printed as #REF!, replicate 2): 21.3% | LogIC50 ([2]; CAPAN-1, curve-fit output, concentration axis Log (uM)): 1.19 | IC50 ([2]; CAPAN-1, 72 h, CellTiter-Glo, read-out: CAPAN-1 IC50): 15.5 µM | IC50 ([2]; CAPAN-1, 72 h, supplement Summary sheet, read-out: IC50): 15.5 µM | inhibition at 0.00508 µM ([2]; replicate 1, read-out: Inh % 1): -4.4% | inhibition at 0.00508 µM ([2]; replicate 2, read-out: Inh % 2): -9.4% | inhibition at 0.0152 µM ([2]; replicate 1, read-out: Inh % 1): 3.3% | inhibition at 0.0152 µM ([2]; replicate 2, read-out: Inh % 2): -2.6% | inhibition at 0.0457 µM ([2]; replicate 1, read-out: Inh % 1): 0.846% | inhibition at 0.0457 µM ([2]; replicate 2, read-out: Inh % 2): -4.3% | inhibition at […] ([2]; replicate 1, read-out: Inh % 1): 4.9% | inhibition at […] ([2]; replicate 2, read-out: Inh % 2): -2.2% | inhibition at 0.41 µM ([2]; replicate 1, read-out: Inh % 1): -7.8% | inhibition at 0.41 µM ([2]; replicate 2, read-out: Inh % 2): -11.6% | inhibition at 1.23 µM ([2]; replicate 1, read-out: Inh % 1): 17.2% | inhibition at 1.23 µM ([2]; replicate 2, read-out: Inh % 2): -4.7% | inhibition at 3.7 µM ([2]; replicate 1, read-out: Inh % 1): -2.4% | inhibition at 3.7 µM ([2]; replicate 2, read-out: Inh % 2): -0.7% | inhibition at 11.11 µM ([2]; replicate 1, read-out: Inh % 1): 18.7% | inhibition at 11.11 µM ([2]; replicate 2, read-out: Inh % 2): 8.5% | inhibition at 33.33 µM ([2]; replicate 1, read-out: Inh % 1): 98.2% | inhibition at 33.33 µM ([2]; replicate 2, read-out: Inh % 2): 97.2% | inhibition at 100 µM ([2]; replicate 1, read-out: Inh % 1): 99.7% | inhibition at 100 µM ([2]; replicate 2, read-out: Inh % 2): 99.1% | IC50 ([2]; CAPAN-1, curve-fit output, concentration axis Log (uM), read-out: IC50): 15.5 µM | inhibition at 0.00508 µM ([3]; replicate 1, read-out: Inh % 1): -1.4% | inhibition at 0.00508 µM ([3]; replicate 2, read-out: Inh % 2): -0.3% | inhibition at 0.0152 µM ([3]; replicate 1, read-out: Inh % 1): -1.8% | inhibition at 0.0152 µM ([3]; replicate 2, read-out: Inh % 2): -8.4% | inhibition at 0.0457 µM ([3]; replicate 1, read-out: Inh % 1): -13.1% | inhibition at 0.0457 µM ([3]; replicate 2, read-out: Inh % 2): -7% | inhibition at 0.41 µM ([3]; replicate 1, read-out: Inh % 1): -6.8% | inhibition at 0.41 µM ([3]; replicate 2, read-out: Inh % 2): -9.9% | inhibition at 1.23 µM ([3]; replicate 1, read-out: Inh % 1): -10% | inhibition at 1.23 µM ([3]; replicate 2, read-out: Inh % 2): -7.6% | inhibition at 3.7 µM ([3]; replicate 1, read-out: Inh % 1): -1.8% | inhibition at 3.7 µM ([3]; replicate 2, read-out: Inh % 2): -0.0749% | inhibition at 11.11 µM ([3]; replicate 1, read-out: Inh % 1): 7.8% | inhibition at 11.11 µM ([3]; replicate 2, read-out: Inh % 2): 4.7% | inhibition at 33.33 µM ([3]; replicate 1, read-out: Inh % 1): 91.6% | inhibition at 33.33 µM ([3]; replicate 2, read-out: Inh % 2): 79.7% | inhibition at 100 µM ([3]; replicate 1, read-out: Inh % 1): 99.8% | inhibition at 100 µM ([3]; replicate 2, read-out: Inh % 2): 99.4% | IC50 ([3]; MDA-MB-436, 72 h, CellTiter-Glo, read-out: MDA-MB-436 IC50): 19.8 µM | IC50 ([3]; MDA-MB-436, 72 h, supplement Summary sheet, read-out: IC50): 19.8 µM | IC50 ([3]; MDA-MB-436, curve-fit parameter list, concentrations in uM, read-out: IC50): 19.8 µM | LogIC50 ([3]; MDA-MB-436, curve-fit parameter list, Log (uM)): 1.296 | inhibition at 0.01 µM ([4]; supplement sheet, read-out: 10 nM inhibition% PAPR-2): 76.8% | inhibition at 0.01 µM ([4]; read-out: PARP-2 Inhibition % (10 nM)): 76.7% | IC50 ([4]; read-out: PARP-2 IC50): 0.0032 µM | IC50 ([4]; supplement sheet, read-out: IC50 PAPR-2): 0.00315 µM
